From patent US5464617A, “β-lactam compounds” (Hoffmann-La Roche Inc., priority 1994, dated 1995)
Values after ≈ are worked out from the molar mass of the structure shown. Structures can show the parent of a compound that is named as a salt.

Test system: Citrobacter freundii 1982
Assay: MIC in vitro of a 1:4 combination of ceftriaxone with a compound of formula I (Test D)
Type: cell-based
Settings: Table 2; 1:4 combination of ceftriaxone with the compound
Protocol: The minimum inhibitory concentration in vitro ([…]) of a 1:4 combination of ceftriaxone with a compound of formula I against Citrobacter freundii 1982 was measured and compiled in Table 2 hereinafter.

MIC C. freundii 1982	Compound
0.25 µg/mL	Cn1nnnc1SC1=C(C(=O)O)N2C(=O)[C@@H]3[C@H]2[C@H](C1)CN3C(=O)N[C@H]1CCNC1=O [3(c), (1aS,3aR,6bR)-2-[(S)-2-Oxo-pyrrolidin-3-ylcarbamoyl]-5-(1-methyl-1H-tetrazol-5-ylsulphanyl)-1-oxo-1a,2,3,3a,4,6b-hexahydro-1H-2,6a-diazacyclobut[cd]indene-6-carboxylic acid sodium salt]
0.5 µg/mL	Cc1nnc(SC2=C(C(=O)O)N3C(=O)[C@@H]4[C@H]3[C@H](C2)CN4C(=O)Nc2ccc(C(N)=O)cc2)s1 [3(k), (1aS,3aR,6bR)-2-(4-Carbamoyl-phenylcarbamoyl)-5-(5-methyl-1,3,4-thiadiazol-2-ylsulphanyl)-1-oxo-1a,2,3,3a,4,6b-hexahydro-1H-2,6a-diazacyclobut[cd]indene-6-carboxylic acid sodium salt]
0.06 µg/mL	Cn1nnnc1SC1=C(C(=O)O)N2C(=O)[C@@H]3[C@H]2[C@H](C1)CN3C(=O)NC1CCSC1=O (mixture of isomers) [3(f), (1aS,3aR,6bR)-5-(1-Methyl-1H-tetrazol-5-ylsulphanyl)-1-oxo-2-[(R)- and [(S)-2-oxo-tetrahydro-thien-3-ylcarbamoyl]-1a,2,3,3a,4,6b-hexahydro-1H-2,6a-diazacyclobut[cd]indene-6-carboxylic acid sodium salt]
0.25 µg/mL	NC(=O)c1ccc(NC(=O)N2C[C@H]3CC(C[n+]4ccccc4)=C(C(=O)[O-])N4C(=O)[C@@H]2[C@@H]34)cc1 [23(c), (1aS,3aR,6bR)-2-(4-Carbamoyl-phenylcarbamoyl)-1-oxo-5-(pyridin-1-yliomethyl)-1a,2,3,3a,4,6b-hexahydro-1H-2,6a-diazacyclobut[cd]indene-6-carboxylate]
2 µg/mL	O=C(C[n+]1ccccc1)Nc1nnc(SC2=C(C(=O)[O-])N3C(=O)[C@@H]4[C@H]3[C@H](C2)CN4C(=O)Nc2ccc(O)cc2)s1 [Example 5, (1aS,3aR,6bR)-2-(4-Hydroxy-phenylcarbamoyl)-1-oxo-5-[5-(pyridin-1-ylioacetylamino)-1,3,4-thiadiazol-2-ylsulphanyl]-1a,2,3,3a,4,6b-hexahydro-1H-2,6a-diazacyclobut[cd]indene-6-carboxylic acid]
0.25 µg/mL	CS(=O)(=O)OC1=C(C(=O)O)N2C(=O)[C@@H]3[C@H]2[C@H](C1)CN3C(=O)N[C@H]1CCNC1=O [9(e), (1aS,3aR,6bR)-5-Methylsulphonyloxy-1-oxo-2-[(S)-2-oxo-pyrrolidin-3-ylcarbamoyl]-1a,2,3,3a,4,6b-hexahydro-1H-2,6a-diazacyclobut[cd]indene-6-carboxylicacid sodium salt]
0.25 µg/mL	COC(=O)CC1=C(C(=O)O)N2C(=O)[C@@H]3[C@H]2[C@H](C1)CN3C(=O)Nc1ccc(O)cc1 [13(b), (1aS,3aR,6bR)-2-(4-Hydroxy-phenylcarbamoyl)-5-methoxycarbonylmethyl-1-oxo-1a,2,3,3a,4,6b-hexahydro-1H-2,6a-diazacyclobut[cd]indene-6-carboxylic add sodium salt]
0.5 µg/mL	C[n+]1ccc(SCC2=C(C(=O)[O-])N3C(=O)[C@@H]4[C@H]3[C@H](C2)CN4C(=O)Nc2ccc(C(N)=O)cc2)cc1 [Example 21, (1aS,3aR,6bR)-2-(4-Carbamoyl-phenylcarbamoyl)-5-(1-methylpyridin-1-yliosulphanylmethyl)-1-oxo-1a,2,3,3a,4,6b-hexahydro-1H-2,6a-diazacyclobut[cd]indene-6-carboxylate]
0.25 µg/mL	Cn1nnnc1SC1=C(C(=O)O)N2C(=O)[C@@H]3[C@H]2[C@H](C1)CN3C(=O)Nc1ccc(C(N)=O)cc1 [3(b), (1aS,3aR,6bR)-2-(4-Carbamoyl-phenylcarbamoyl)-5-(1-methyl-1H-tetrazol-5-ylsulphanyl)-1-oxo-1a,2,3,3a,4,6b-hexahydro-1H-2,6a-diazacyclobut[cd]indene-6-carboxylic acid sodium salt]
0.06 µg/mL	Cn1nnnc1SC1=C(C(=O)O)N2C(=O)[C@@H]3[C@H]2[C@H](C1)CN3C(=O)NC1CCS(=O)(=O)C1 (mixture of isomers) [3(i), (1aS,3aR,6bR)-2-[(R)- and [(S)-1,1-dioxo-tetrahydrothien-3-ylcarbamoyl)-5-(1-methyl-1H-tetrazol-5-ylsulphanyl)-1-oxo-1a,2,3,3a,4,6b-hexahydro-1H-2,6a-diazacyclobut[cd]indene-6-carboxylic acid sodium salt]
0.25 µg/mL	NC(=O)c1ccc(NC(=O)N2C[C@H]3CC(Sc4nnc(N)s4)=C(C(=O)O)N4C(=O)[C@@H]2[C@@H]34)cc1 [3(m), (1aS,3aR,6bR)-5-(5-Amino1,3,4-thiadiazol-2-ylsulphanyl)-2-(4-carbamoyl-amino-phenylcarbamoyl)-1-oxo-1a,2,3,3a,4,6b-hexahydro-1H-2,6a-diazacyclobut]cd]indene-6-carboxylic acid sodium salt]
1 µg/mL	O=C([O-])C1=C(C[n+]2ccccc2)C[C@@H]2CN(C(=O)Nc3ccc(O)cc3)[C@@H]3C(=O)N1[C@H]23 [23(a)]

Compound	MIC C. freundii 1982
Cc1ccc(S(=O)(=O)OC2=C(C(=O)O)N3C(=O)[C@@H]4[C@H]3[C@H](C2)CN4C(=O)OC(C)(C)C)cc1 [10(d), (1aS,3aR,6bR)-2-t-Butoxycarbonyl-5-(4-methyl-phenylsulphonyloxy)-1-oxo-1a,2,3,3a,4,6b-hexahydro-1H-2,6a-diazacyclobut[cd]indene-6-carboxylic acid sodium salt]	8 µg/mL
O=C([O-])C1=C(C[n+]2ccccc2)C[C@@H]2CN(C(=O)NCc3cc(O)no3)[C@@H]3C(=O)N1[C@H]23 [23(b), (1aS,3aR,6bR)-2-(3-Hydroxy-isoxazol-5-ylmethylcarbamoyl)-1-oxo-5-(pyridin-1-yliomethyl)-1a,2,3,3a,4,6b-hexahydro-1H-2,6a-diazacyclobut[cd]indene-6-carboxylate]	1 µg/mL
CC(=O)OCC1=C(C(=O)O)N2C(=O)[C@@H]3[C@H]2[C@H](C1)CN3C(=O)Nc1ccc(O)cc1 [Example 25, (1aS,3aR,6bR)-5-Acetoxymethyl-2-(4-hydroxy-phenylcarbamoyl)-1-oxo-1a,2,3,3a,4,6b-hexahydro-1H-2,6a-diazacyclobut[cd]indene-6-carboxylic acid sodium salt]	0.25 µg/mL
CC(C)(C)OC(=O)N1C[C@H]2CC(OS(C)(=O)=O)=C(C(=O)O)N3C(=O)[C@@H]1[C@@H]23 [10(a), (1aS,3aR,6bR)-2-t-Butoxycarbonyl-5-methylsulphonyloxy-1-oxo-1a,2,3,3a,4,6b-hexahydro-1H-2,6a-diazacyclobut[cd]-indene-6-carboxylic acid sodium salt]	1 µg/mL

Same assay, conditions: Table 4; test D, 1:4 combination of ceftriaxone with the compound

MIC C. freundii 1982 (D)	Compound
0.5 µg/mL	Cn1nnnc1SCC1=C(C(=O)O)N2C(=O)[C@@H]3[C@H]2[C@H](C1)CN3C(=O)NCc1cccs1 [18(g), (1aS,3aR,6bR)-1-Oxo-5-(1-methyl-1H-tetrazol-5-yl-sulphanylmethyl)-2-thiophen-2-ylmethylcarbamoyl-1a,2,3,3a,4,6b-hexahydro-1H-2,6a-diazacyclobut[cd]indene-6-carboxylic acid sodium salt]
0.25 µg/mL	COC(=O)CN1C[C@H]2CC(CSc3nnnn3C)=C(C(=O)O)N3C(=O)[C@@H]1[C@@H]23 [61(a), (1aS,3aR,6bR)-2-Methoxycarbonylmethyl-5-(1-methyl-1H-tetrazol-5-ylsulphanylmethyl)-1-oxo-1a,2,3,3a,4,6b-hexahydro-1H-2,6a-diazacyclobut[cd]indene-6-carboxylic acid]
4 µg/mL	Cn1nnnc1SCC1=C(C(=O)O)N2C(=O)[C@@H]3[C@H]2[C@H](C1)CN3S(=O)(=O)C(F)(F)F [19(f), (1aS,3aR,6bR)-5-(1-Methyl-1H-tetrazol-5-ylsulphanylmethyl)-1-oxo-2-trifluormethylsulphonyl-1a,2,3,3a,4,6b-hexahydro-1H-2,6a-diazacyclobut[cd]indene-6-carboxylic acid sodium salt]

Test system: E. coli 1346
Assay: Antibacterial activity of the products per se, serial dilution method in liquid medium (Test E)
Type: cell-based
Settings: Table 3; product per se, liquid medium
Source text: The antibacterial activity of the products per se is illustrated on the basis of Table 3 hereinafter, the minimum inhibitory concentration […] in vitro against E. coli 1346 being determined using the serial dilution method in liquid medium: […]

MIC E. coli 1346	Compound
2 µg/mL	Cn1nnnc1SCC1=C(C(=O)O)N2C(=O)[C@H]3NC[C@@H](C1)[C@H]32 [Example 15, (1aS,3aR,6bR)-5-(1-Methyl-1H-tetrazol-5-ylsulphanylmethyl)-1-oxo-1a,2,3,3a,4,6b-hexahydro-1H-2,6a-diazacyclobut[cd]indene-6-carboxylic acid trifluoroacetate]
32 µg/mL	Cc1nnc(SC2=C(C(=O)O)N3C(=O)[C@@H]4[C@H]3[C@H](C2)CN4C(=O)Nc2ccc(O)cc2)s1 [3(j), (1aS,3aR,6bR)-2-(4-Hydroxyphenylcarbamoyl)-5-(5-methyl-1,3,4-thiadiazol-2-ylsulphanyl)-1-oxo-1a,2,3,3a,4,6b-hexahydro-1H-2,6a-diazacyclobut[cd]indene-6-carboxylic acid sodium salt]
0.5 µg/mL	CC(=O)N1C[C@H]2CC(CSc3nnnn3C)=C(C(=O)O)N3C(=O)[C@@H]1[C@@H]23 [Example 19(a), (1aS,3aR,6bR)-2-Acetyl-5-(1-methyl-1H-tetrazol-5-ylsulphahylmethyl)-1-oxo-1a,2,3,3a,4,6b-hexahydro-1H-2,6a-diazacyclobut[cd]indene-6-carboxylic acid sodium salt]
4 µg/mL	Cn1nnnc1SC1=C(C(=O)O)N2C(=O)[C@H]3NC[C@@H](C1)[C@H]32 [Example 2(a), (1aS,3aR,6bR)-5-(1-Methyl-1H-tetrazol-5-ylsulphanyl)-1-oxo-1a,2,3,3a,4,6b-hexahydro-1H-2,6a-diazacyclobut[cd]indene-6-carboxylic acid trifluoroacetate]
32 µg/mL (≈ 71 µM)	CS(=O)(=O)OC1=C(C(=O)[O-])N2C(=O)[C@@H]3[C@H]2[C@H](C1)CN3C(=O)C[n+]1cccc(C(N)=O)c1 [11(a), (1 aS,3aR,6bR)-2-(3-Carbamoyl-pyridin-1-ylioacetyl)-5-methylsulphonyloxy-1-oxo-1a,2,3,3a,4,6b-hexahydro-1H-2,6a-diazacyclobut[cd]indene-6-carboxylate]
